Columns and labels:
peptide-pulsed T2 cells [1] = assay: In vitro CTL induction, IFN-gamma ELISPOT assay (HLA-A*0201); type: cell-based, human; conditions: for Peptide specific CTL activity, IFN-gamma production (ELISPOT): CTLs from HLA-A*0201 positive donor stimulated with peptide-pulsed DCs, against peptide-pulsed target cells vs control; for CTL inducibility / specific CTL activity of CTLs stimulated with the peptide (summary statement): HLA-A2 restricted peptides
Excerpt: Monocyte-derived dendritic cells (DCs) were used as antigen-presenting cells to induce cytotoxic T lymphocyte (CTL) responses against peptides presented on human leukocyte antigen (HLA). DCs were generated in vitro as described elsewhere (Nakahara S et al., Cancer Res 2003 Jul. 15, 63(14): 4112-8). Specifically, peripheral blood mononuclear cells isolated from a normal volunteer (HLA-A*0201 positive) by Ficoll-Plaque (Pharmacia) solution were separated by adherence to a plastic tissue culture dish (Becton Dickinson) so as to enrich them as the monocyte fraction. The monocyte-enriched population was cultured in the presence of 1,000 U/ml of granulocyte-macrophage colony-stimulating factor (R&D System) and 1,000 U/ml of interleukin (IL)-4 (R&D System) in AIM-V Medium (Invitrogen) containing 2% heat-inactivated autologous serum (AS). After 7 days of culture, the cytokine-induced DCs were pulsed with 20 micro-g/ml of each of the synthesized peptides in the presence of 3 micro-g/ml of beta 2-microglobulin for 3 hrs at 37 degrees C. in AIM-V Medium. The generated cells appeared to express DC-associated molecules, such as CD80, CD83, CD86 and HLA class II, on their cell surfaces (data not shown). These peptide-pulsed DCs were then inactivated by X-irradiation (20 Gy) and mixed at a 1:20 ratio with autologous CD8+ T cells, obtained by positive selection with CD8 Positive Isolation Kit (Dynal). These cultures were set up in 48-well plates (Corning); each well contained 1.5×10^4 peptide-pulsed DCs, 3×10^5 CD8+ T cells and 10 ng/ml of IL-7 (R&D System) in 0.5 ml of AIM-V/2% AS medium. Three days later, these cultures were supplemented with IL-2 (CHIRON) to a final concentration of 20 IU/ml. On days 7 and 14, the T cells were further stimulated with the autologous peptide-pulsed DCs. The DCs were prepared each time by the same way described above. CTLs were tested against peptide-pulsed T2 cells after the 3rd round of peptide stimulation on day 21 (Tanaka H et al., Br J Cancer 2001 Jan. 5, 84(1): 94-9; Umano Y et al., Br J Cancer 2001 Apr. 20, 84(8): 1052-7; Uchida N et al., Clin Cancer Res 2004 Dec. 15, 10(24): 8577-86; Suda T et al., Cancer Sci 2006 May, 97(5): 411-9; Watanabe T et al., Cancer Sci 2005 August, 96(8): 498-506).
(§1) Specifically, peptide-pulsed T2 (1×10^4/well) was prepared as stimulator cells. Cultured cells in 48 wells were used as responder cells. IFN-gamma ELISPOT assay and IFN-gamma ELISA assay were performed under manufacture procedure.

peptide-pulsed T2 cells [2] = assay: IFN-gamma ELISA assay of CTL lines and clones (HLA-A*0201); type: cell-based, human; conditions: for IFN-gamma production of CTL clones (ELISA): CTL clones established by limiting dilution, target cells pulsed with peptide vs control; for IFN-gamma production of CTL lines (ELISA): CTL line stimulated with peptide, target cells pulsed with peptide vs without peptide pulse
Description: CTLs were expanded in culture using the method similar to the one described by Riddell et al. (Walter E A et al., N Engl J Med 1995 Oct. 19, 333(16): 1038-44; Riddell S R et al., Nat Med 1996 February, 2(2): 216-23). A total of 5×10^4 CTLs were suspended in 25 ml of AIM-V/5% AS medium with 2 kinds of human B-lymphoblastoid cell lines, inactivated by Mitomycin C, in the presence of 40 ng/ml of anti-CD3 monoclonal antibody (Pharmingen). One day after initiating the cultures, 120 IU/ml of IL-2 were added to the cultures. The cultures were fed with fresh AIM-V/5% AS medium containing 30 IU/ml of IL-2 on days 5, 8 and 11 (Tanaka H et al., Br J Cancer 2001 Jan. 5, 84(1): 94-9; Umano Y et al., Br J Cancer 2001 Apr. 20, 84(8): 1052-7; Uchida N et al., Clin Cancer Res 2004 Dec. 15, 10(24): 8577-86; Suda T et al., Cancer Sci 2006 May, 97(5): 411-9; Watanabe T et al., Cancer Sci 2005 August, 96(8): 498-506).
The dilutions were made to have 0.3, 1, and 3 CTLs/well in 96 round-bottomed micro titer plate (Nalge Nunc International). CTLs were cultured with 1×10^4 cells/well of 2 kinds of human B-lymphoblastoid cell lines, 30 ng/ml of anti-CD3 antibody, and 125 U/ml of IL-2 in a total of 150 micro-l/well of AIM-V Medium containing 5% AS. 50 micro-l/well of IL-2 were added to the medium 10 days later so to reach a final concentration of 125 U/ml IL-2. CTL activity was tested on the 14th day, and CTL clones were expanded using the same method as described above (Uchida N et al., Clin Cancer Res 2004 Dec. 15, 10(24): 8577-86; Suda T et al., Cancer Sci 2006 May, 97(5): 411-9; Watanabe T et al., Cancer Sci 2005 August, 96(8): 498-506).
as §1

| Sequence | Peptide specific CTL activity, IFN-gamma production (ELISPOT) (peptide-pulsed T2 cells [1]) | CTL inducibility / specific CTL activity of CTLs stimulated with the peptide (summary statement) (peptide-pulsed T2 cells [1]; listed as HJURP-A02-10-405) | IFN-gamma production of CTL clones (ELISA) (peptide-pulsed T2 cells [2]; listed as HJURP-A02-10-405) | IFN-gamma production of CTL lines (ELISA) (peptide-pulsed T2 cells [2]) | CTL inducibility / specific CTL activity of CTLs stimulated with the peptide (summary statement) (peptide-pulsed T2 cells [1]; listed as HJURP-A02-9-406) | IFN-gamma production of CTL clones (ELISA) (peptide-pulsed T2 cells [2]; listed as HJURP-A02-9-406) |
| --- | --- | --- | --- | --- | --- | --- |
| RTLKWLISPV [SEQ ID NO: 37] | potent IFN-gamma production | significant and specific CTL activity | potent IFN-gamma production | potent IFN-gamma production | – | – |
| TLKWLISPV [SEQ ID NO: 30] | potent IFN-gamma production | – | – | potent IFN-gamma production | significant and specific CTL activity | potent IFN-gamma production |
